The source of these data is patent publication US8604192B2, “Cyclohexenyl nucleic acids analogs” (Isis Pharmaceuticals, Inc., priority 2008, dated 2013).

One data set concerns PTEN. The data set is described as follows: 3-10-3 gapped oligomeric compounds targeted to PTEN: in vivo study, liver mRNA levels by real-time PCR. Details: species or system Balb/c mice. The following applies: estimated ED50 for liver PTEN mRNA reduction (% UTC); single dose of 3.2, 10, 32 and 100 mg/kg; sacrificed 48 hours after administration; calculated using Graphpad Prism. From the text: Quantitation of target mRNA levels is accomplished by real-time quantitative PCR using the ABI PRISM™ 7600, 7700, or 7900 Sequence Detection System (PE-Applied Biosystems, Foster City, Calif.) according to manufacturer's instructions. This is a closed-tube, non-gel-based, fluorescence detection system which allows high-throughput quantitation of polymerase chain reaction (PCR) products in real-time. As opposed to standard PCR in which amplification products are quantitated after the PCR is completed, products in real-time quantitative PCR are quantitated as they accumulate. […] With each cycle, additional reporter dye molecules are cleaved from their respective probes, and the fluorescence intensity is monitored at regular intervals by laser optics built into the ABI PRISM™ Sequence Detection System. In each assay, a series of parallel reactions containing serial dilutions of mRNA from untreated control samples generates a standard curve that is used to quantitate the percent inhibition after antisense oligonucleotide treatment of test samples.
Prior to quantitative PCR analysis, primer-probe sets specific to the target gene being measured are evaluated for their ability to be “multiplexed” with a GAPDH amplification reaction. […]

Data set [1] has as its system complementary RNA (20-mer RNA). As to the kind of experiment: Tm of gapped oligomeric compound with complementary RNA. Format: binding. The following applies: 100 mM phosphate buffer, 0.1 mM EDTA, pH 7, 260 nm, 4 μM oligomeric compound and 4 μM complementary RNA. The method, then:
(§1) Six week old Balb/c mice (Jackson Laboratory, Bar Harbor, Me.) were injected with a single dose of ASOs 464846 and 464847 targeted to PTEN at a dose of 3.2, 10, 32 and 100 mg/kg. The mice were sacrificed 48 hours following the last administration. Liver tissues were homogenized and mRNA levels were quantitated using real-time PCR using procedures illustrated herein for comparison to untreated control levels (% UTC). Plasma chemistry analysis was also completed. Tms were determined in 100 mM phosphate buffer, 0.1 mM EDTA, pH 7, at 260 nm using 4 μM of the gapped oligomeric compounds listed below and 4 μM of the complementary RNA.

Data set [2] is described as follows: Liver transaminase levels (ALT) in serum, plasma chemistry analysis. Format: in vivo, Balb/c mice. The settings on record: approximate serum level, mice, 48 hours; for ALT @ 3.2 mg/kg: single dose 3.2 mg/kg; for ALT @ 10 mg/kg: single dose 10 mg/kg; for ALT @ 32 mg/kg: single dose 32 mg/kg; for ALT @ 100 mg/kg: single dose 100 mg/kg. As to the method: as §1
Liver transaminase levels, alanine aminotranferease (ALT) and aspartate aminotransferase (AST), in serum were also measured relative to saline injected mice.

“Te^mCeTeTAG^mCA^mCTGGC^mCeTeTe (DNA TCTTAGCACTGGCCTT; all phosphorothioate, sugars by position and methylation of C not given here; 3-10-3 gapmer, wing nucleosides defined elsewhere, some cytosines 5-methylated) [05/464846]”: the 50% effective dose (ED50) in the data set on PTEN was 91 mg/kg. Also, the “Tm (° C.) vs. 20-mer RNA” value in data set [1] came to 62.35 °C. For the same substance, in data set [2], the “ALT @ 3.2 mg/kg” value is on record as 38, the “ALT @ 10 mg/kg” value was determined as 25, the “ALT @ 32 mg/kg” value is on record as 22 and the “ALT @ 100 mg/kg” value is 22.

“Tf^mCfTfTAG^mCA^mCTGGC^mCfTfTf (DNA TCTTAGCACTGGCCTT; all phosphorothioate, sugars by position and methylation of C not given here; wing nucleosides modified (marked e), some C 5-methyl) [05/464847]”: in the data set with PTEN, the ED50 is 22 mg/kg. For the same substance, the “Tm (° C.) vs. 20-mer RNA” value in data set [1] came out at 64.37 °C. Moreover, in data set [2], the “ALT @ 3.2 mg/kg” value is 24, the “ALT @ 10 mg/kg” value is 23, the “ALT @ 32 mg/kg” value was 24 and the “ALT @ 100 mg/kg” value was determined as 284.
